Laboratory results taken from PubChem BioAssay (NCI).
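A five-concentration, 48-hour dose response in 96-well plates underlies each endpoint, interpolated linearly between surrounding concentrations. At the TGI there is no net growth.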

Legend:
Assay in all cases: DTP human tumour cell line panel, 48 h
[1] = system: HCT-116 colon
[2] = system: NCI-H522 lung
[3] = system: SW-620 colon
[4] = system: EKVX NSCLC
[5] = system: SF-539 CNS
[6] = system: NCI-H23 lung
[7] = system: SNB-19 CNS
[8] = system: HCT-15 colon
[9] = system: MALME-3M melanoma
[10] = system: DMS 114 small cell lung
[11] = system: OVCAR-5 ovarian
[12] = system: OVCAR-4 ovarian
[13] = system: HCC-2998 colon
[14] = system: HL-60(TB) leukemia
[15] = system: LXFL 529 NSCLC
[16] = system: NCI-H460 lung
[17] = system: HOP-62 NSCLC
[18] = system: M19-MEL melanoma
[19] = system: SK-MEL-28 melanoma
[20] = system: 786-0 renal
[21] = system: RXF 393 renal
[22] = system: UO-31 renal
[23] = system: M14 melanoma
[24] = system: COLO 205 colon
[25] = system: ACHN renal
[26] = system: HOP-92 NSCLC
[27] = system: SK-MEL-5 melanoma
[28] = system: MOLT-4 leukemia
[29] = system: LOX IMVI melanoma
[30] = system: SNB-75 CNS
[31] = system: CCRF-CEM leukemia
[32] = system: RXF-631 renal
[33] = system: A549 NSCLC
[34] = system: OVCAR-8 ovarian
[35] = system: SK-OV-3 ovarian
[36] = system: RPMI-8226 leukemia
[37] = system: IGROV1 ovarian
[38] = system: SK-MEL-2 melanoma
[39] = system: K-562 leukemia
[40] = system: KM20L2 colon
[41] = system: SF-268 CNS
[42] = system: SN12C renal
[43] = system: UACC-62 melanoma
[44] = system: CAKI-1 renal
[45] = system: NCI-H226 lung
[46] = system: SNB-78 CNS
[47] = system: DLD-1 colon
[48] = system: TK-10 renal
[49] = system: A498 renal
[50] = system: U251 CNS
[51] = system: XF 498 CNS
[52] = system: UACC-257 melanoma
[53] = system: SF-295 CNS
[54] = system: HT29 colon
[55] = system: OVCAR-3 ovarian
[56] = system: HOP-18 NSCLC
[57] = system: SR leukemia
[58] = system: DMS 273 small cell lung
[59] = system: KM12 colon

Measured: TGI

CCc1cccc(C(C)C)c1NC(=O)C(=O)CC(=O)c1c(C)n([O-])c2ccccc2[n+]1=O
not listed: [52] | [53] | [54] | [55] | [56] | [57] | [58] | [59]
> 100 µM: all other assays above

CCCCC1CC(c2cccc([N+](=O)[O-])c2)=NO1 (configuration not stated)
not listed: [21] | [29] | [51]
> 100 µM: all other assays above
